Test results: patent US20190224186A1, “TREATMENT OF MULTIPLE SCLEROSIS WITH CHS-131” (InteKrin Therapeutics, Inc., priority 2016, published 2019)
Several values for one entry are separate records, joined by “and”; a condition that tells them apart may be missing. Equal values may be shown once.

Experiments:
Assay type in all cases: in vivo, human
[1] = test system: MS patients in the relapsing and remitting course of the disease (RRMS); experiment: Phase 2 trial: number of new gadolinium contrast-enhancing (CE) T1-weighted lesions on monthly MRI over 6 months; conditions: for LSMean cumulative number of new CE lesions over 6 months / mean cumulative number of new CE lesions over 6 months: n=70
Protocol: A Phase 2, randomized, double-blind, placebo-controlled, multi-center clinical trial of CHS-131 for the treatment of multiple sclerosis (MS) was conducted. The primary endpoint was the number of new gadolinium contrast-enhancing (CE) T1-weighted lesions on monthly MRI over 6 months.
The study enrolled MS patients in the relapsing and remitting course of the disease (RRMS) who had been diagnosed within ≤3 years of enrollment. Patients had to be treatment-naïve, have ≥1 gadolinium-positive lesion within 12 months of enrollment, and have an Expanded Disability Status Score (EDSS) of 0-6 at screening.
Part 1 was a double-blind, parallel-group, 6-month study. Patients were randomized to oral CHS-131 at 3 mg or 1 mg or placebo in a 1:1:1 ratio at 21 sites in Russia. Monthly MRIs were read in a blinded fashion at the Buffalo Neuroimaging and Analysis Center, Buffalo, N.Y., USA. Part 2 is an open label, 6-month, safety extension study, in which all subjects transition to 1 mg CHS-131 daily, to evaluate clinical response, CE lesions on MM, and safety.
The mean cumulative number of new CE lesions over 6 months was 4.2 (LSMean 3.10) for 3 mg CHS131 (n=70), 7.6 (LSMean 5.15) for 1 mg CHS131 (n=70), and 7.8 (LSMean 6.49) for placebo (n=69). The response was dose-dependent. […] FIG. 2 provides a graphical representation of these LSMean data.
Upon completion of the six month trial period described in Example 1, the number of new gadolinium CE T1-weighted lesions was evaluated in the entire study population and separately in men and women.
The ratios of changes in lesions were evaluated by a least square means (LSMeans) analysis. In such an analysis, multiple factors including both categorical (e.g. treatment, center, gender) and continuous covariates (e.g. baseline measures) can be accounted for.

[2] = test system: MS patients in the relapsing and remitting course of the disease (RRMS); experiment: Phase 2 trial: Expanded Disability Status Scale (EDSS) score
Source text: Several methods are used to diagnose and determine the impact of multiple sclerosis on patients. The McDonald criteria are used to diagnose multiple sclerosis on clinical grounds and MRI lesions consistent with MS. The Expanded Disability Status Scale (EDSS) quantifies disability in eight Functional Systems (FS) and allows neurologists to assign a Functional System Score (FSS) in each of these. The Multiple Sclerosis Functional Composite (MSFC) is a three-part, standardized, quantitative, assessment of function. The three components of the MSFC measure leg function/ambulation, arm/hand function, and cognitive function. The EDSS and MSFC scores are useful to determine if a drug improves or prevents loss of cognitive or physical function of a patient with MS. A drug is said to reduce MS-related dysfunction if it reduces a patient's EDSS or MSFC score. The study enrolled MS patients in the relapsing and remitting course of the disease (RRMS) who had been diagnosed within ≤3 years of enrollment. Patients had to be treatment-naïve, have ≥1 gadolinium-positive lesion within 12 months of enrollment, and have an Expanded Disability Status Score (EDSS) of 0-6 at screening. Part 1 was a double-blind, parallel-group, 6-month study. Patients were randomized to oral CHS-131 at 3 mg or 1 mg or placebo in a 1:1:1 ratio at 21 sites in Russia. Monthly MRIs were read in a blinded fashion at the Buffalo Neuroimaging and Analysis Center, Buffalo, N.Y., USA. Part 2 is an open label, 6-month, safety extension study, in which all subjects transition to 1 mg CHS-131 daily, to evaluate clinical response, CE lesions on MM, and safety. The EDSS scores are reported for the full analysis population in the table below.

[3] = test system: MS patients in the relapsing and remitting course of the disease (RRMS); experiment: Slope of cortical atrophy at six months as a function of CE lesion number; conditions: n=70
Protocol: To evaluate the connection between the reduction in cortical volume loss and CHS-131 treatment, cortical volume was compared to observed CE lesion in the MS patients. […] The slopes of cortical atrophy at six months as a function of CE lesion number at six months was plotted for the placebo group (n=69), the CHS-131 1 mg/day group (n=70), and the CHS-131 3 mg/day group (n=70). For the placebo, 1 mg/day, and 3 mg/day groups the slopes were: −0.040391, −0.019631, and −0.001783, respectively. […] Thus, the reduction in CE lesions as a result of CHS-131 treatment is correlated with a reduction in the loss of cortical volume in MS patients.

`O=S(=O)(Nc1cc(Cl)c(Oc2cnc3ccccc3c2)c(Cl)c1)c1ccc(Cl)cc1Cl` [CHS-131] was tested, and the “incidence of new CE lesions lower than with placebo” value ([1]; 1 mg, 6 months) was 21%, the “LSMean cumulative number of new CE lesions over 6 months” value ([1]; 1 mg) was 5.15 and the “mean cumulative number of new CE lesions over 6 months” value ([1]; 1 mg) was 7.6. For the same molecule, the “LSMean cumulative number of new CE lesions over 6 months” value ([1]; 3 mg) was 3.10, the “mean cumulative number of new CE lesions over 6 months” value ([1]; 3 mg) was 4.2 and the “reduction of incidence of new CE lesions versus placebo” value ([1]; 3 mg, whole population, 6 months, p=0.003) was 52% and 53%. For the same molecule, the “LSMean # of Lesions (new gadolinium CE T1-weighted, 6 months)” value (“LSMean # of Lesions” below) ([1]; Female, 1 mg) was 5.48, the “Mean # of Lesions (new gadolinium CE T1-weighted, 6 months, observed data)” value ([1]; Female, 1 mg) was 8.01 and the “Percent Change from Placebo (observed mean # of lesions)” value ([1]; Female, 1 mg) was 3.2%. For the same molecule, the “Percent Change from Placebo (inverse of ratio of LSMeans treatment:placebo)” value ([1]; Female, 1 mg, p 0.8481) was −5% (0.8481), the “LSMean # of Lesions” value ([1]; Female, 3 mg) was 4.18 and the “Mean # of Lesions (new gadolinium CE T1-weighted, 6 months, observed data)” value ([1]; Female, 3 mg) was 4.97. For the same molecule, the “Percent Change from Placebo (observed mean # of lesions)” value ([1]; Female, 3 mg) was −36.0%, the “Percent Change from Placebo (inverse of ratio of LSMeans treatment:placebo)” value ([1]; Female, 3 mg, p 0.2516) was −28% (0.2516) and the “LSMean # of Lesions” value ([1]; Male & Female, 1 mg) was 5.15. For the same molecule, the “Mean # of Lesions (new gadolinium CE T1-weighted, 6 months, observed data)” value ([1]; Male & Female, 1 mg) was 7.19, the “Percent Change from Placebo (observed mean # of lesions)” value ([1]; Male & Female, 1 mg) was −9.6% and the “Percent Change from Placebo (inverse of ratio of LSMeans treatment:placebo)” value ([1]; Male & Female, 1 mg, p 0.3049) was −21% (0.3049). For the same molecule, the “LSMean # of Lesions” value ([1]; Male & Female, 3 mg) was 3.10, the “Mean # of Lesions (new gadolinium CE T1-weighted, 6 months, observed data)” value ([1]; Male & Female, 3 mg) was 4.51 and the “Percent Change from Placebo (observed mean # of lesions)” value ([1]; Male & Female, 3 mg) was −43.3%. The “Percent Change from Placebo (inverse of ratio of LSMeans treatment:placebo)” value ([1]; Male & Female, 3 mg, p 0.0016) was −52% (0.0016), the “LSMean # of Lesions” value ([1]; Male, 1 mg) was 4.31 and the “Mean # of Lesions (new gadolinium CE T1-weighted, 6 months, observed data)” value ([1]; Male, 1 mg) was 5.93. For the same molecule, the “Percent Change from Placebo (observed mean # of lesions)” value ([1]; Male, 1 mg) was −30.4%, the “Percent Change from Placebo (inverse of ratio of LSMeans treatment:placebo)” value ([1]; Male, 1 mg, p 0.0827) was −48% (0.0827) and the “LSMean # of Lesions” value ([1]; Male, 3 mg) was 2.42. The “Mean # of Lesions (new gadolinium CE T1-weighted, 6 months, observed data)” value ([1]; Male, 3 mg) was 3.81, the “Percent Change from Placebo (observed mean # of lesions)” value ([1]; Male, 3 mg) was −55.4% and the “Percent Change from Placebo (inverse of ratio of LSMeans treatment:placebo)” value ([1]; Male, 3 mg, p 0.0012) was −71% (0.0012). For the same molecule, the “reduction of new T1 lesions in the study analysis” value ([1]; men, 3 mg per day) was 71%, the “Month 3 EDSS % change from baseline” value ([2]; 1 mg) was −0.49% and the “Month 6 EDSS % change from baseline” value ([2]; 1 mg) was −2.94%. The “Month 3 EDSS Mean (SD)” value ([2]; 1 mg, n=74) was 2.03 (0.961), the “Month 6 EDSS Mean (SD)” value ([2]; 1 mg, n=74) was 1.98 (0.974) and the “Month 3 EDSS % change from baseline” value ([2]; 3 mg) was −0.46%. For the same molecule, the “Month 6 EDSS % change from baseline” value ([2]; 3 mg) was −4.59%, the “Month 6 EDSS Mean (SD)” value ([2]; 3 mg, n=73) was 2.08 (0.846) and the “Month 3 EDSS Mean (SD)” value ([2]; 3 mg, n=74) was 2.17 (0.945). For the same molecule, the “slope of cortical atrophy at six months as a function of CE lesion number” value ([3]; 1 mg/day) was −0.01963 and the “slope of cortical atrophy at six months as a function of CE lesion number” value ([3]; 3 mg/day) was −0.001783.
